Measurements as given in patent US12534456B2, “Heterocyclyl pyridines as novel fungicides” (Bayer Aktiengesellschaft, priority 2020, dated 2026).

Experiment: physchem
Format: physicochemical
Conditions: not given
Experimental: Measurement of Log P values as provided herein was performed according to EEC directive 79/831 Annex V.A8 by HPLC (High Performance Liquid Chromatography) on reversed phase columns with the following methods: • ^[a]
If more than one Log P value is available within the same method, all the values are given and separated by “+”.
Lambda-max-values were determined using UV-spectra from 200 nm to 400 nm and the peak values of the chromatographic signals
With `Cc1ccc(CC2CON=C(c3cc(Cl)ncc3Oc3cccc(C)c3F)N2)c(Cl)c1` (stereo not shown) [Compound I-136] the LogP was 4.66^[a]. For `Cc1ccc(CC2CON=C(c3cc(Cl)ncc3Oc3cccc(C)c3F)N2)c(C)c1` (racemic) [Compound I-032], the LogP was 4.59^[a]. For `FC(F)(F)c1cccc(Oc2cnc(Cl)cc2C2=NOCC(c3ccc4c(c3)OCCO4)N2)c1` (racemic) [Compound I-052], the LogP was 3.48^[a]. With `Cc1ccc(CC(CON)NC(=O)c2cc(Cl)ncc2Br)c(C)c1` (stereo not shown) [Compound 6-01] the LogP was 2.20^[a]. For `C#Cc1cccc(Oc2cnc(Cl)cc2C2=NOCC(Cc3ccc(C)cc3C)N2)c1` (racemic) [Compound I-075], the LogP was 4.33^[a]. With `ON=C(NC(CCl)Cc1ccc(C(F)(F)F)cc1Cl)c1cc(Cl)ncc1Oc1cccc(C(F)(F)F)c1` (stereo not shown) [16-09] the LogP was 4.97^[a]. With `Cc1cc(C2=NOCC(Cc3ccc(Cl)cc3Cl)N2)c(Oc2cccc(C3CC3)c2)cn1` (racemic) [Compound I-028] the LogP was 4.08^[a]. For `Cc1cccc(C2CON=C(c3cc(Cl)ncc3Oc3cccc(C(F)(F)F)c3)N2)c1C` (stereo not shown) [Compound I-157], the LogP was 4.23^[a]. With `Cc1ccc(CC(CCl)NC(=O)c2c(Oc3cccc(C(F)(F)F)c3)cnc(Cl)c2F)c(C)c1` (stereo not shown) [14-01] the LogP was 5.03^[a]. For `FC(F)(F)c1cccc(Oc2cnc(Cl)cc2C2=NOCC(Cc3ccc(Cl)cc3Cl)N2)n1` (racemic) [Compound I-128], the LogP was 4.44^[a]. With `COC(=O)Cc1cccc(Oc2cnc(Cl)cc2C2=NOCC(Cc3ccc(C)cc3C)N2)c1` (racemic) [Compound I-078] the LogP was 4.08^[a]. For `O=C(O)c1cc(Cl)ncc1Oc1cccc(C2CC2)c1F` [Compound 1-06], the LogP was 2.97^[a]. With `Clc1ccc(CC2CON=C(c3cc(Cl)ncc3Br)N2)c(Cl)c1` (stereo not shown) [7-04] the LogP was 3.45^[a]. For `Cc1ccc(CC(CON2C(=O)c3ccccc3C2=O)NC(=O)c2cc(Cl)ncc2Oc2cccc(Cl)c2)c(C)c1` (stereo not shown) [3-12], the LogP was 5.11^[a]. With `COCCOc1cccc(Oc2cnc(Cl)cc2C2=NOCC(Cc3ccc(C)cc3C)N2)c1` (racemic) [Compound I-126] the LogP was 4.15^[a]. With `Cc1ccc(CC2CON=C(c3cc(Cl)ncc3Oc3cccc(C4COC4)c3)N2)c(C)c1` (racemic) [Compound I-113] the LogP was 3.68^[a]. For `Cc1ccc(CC2CON=C(c3cc(C4CC4)ncc3Oc3cccc(C4CC4)c3)N2)c(C)c1` (racemic) [Compound I-016], the LogP was 4.87^[a]. In the case of `COCc1cccc(Oc2cnc(Cl)cc2C2=NOCC(Cc3ccc(C)cc3C)N2)c1` (stereo not shown) [Compound I-153], the LogP is reported as 4.10^[a]. In the case of `Fc1c(Oc2cnc(Cl)cc2C2=NOCC(Cc3ccc(Br)cc3Cl)N2)cccc1C1CC1` (racemic) [Compound I-023], the LogP is reported as 5.11^[a]. In the case of `Cc1cc(Br)ccc1CC(CCl)NC(=O)c1cc(Cl)ncc1Oc1cccc(C(F)(F)F)c1` (stereo not shown) [14-08], the LogP is reported as 5.31^[a]. In the case of `Cc1ccc(CC(CCl)NC(=O)c2c(Oc3cccc(C(F)(F)F)c3)cnc(Cl)c2I)c(C)c1` (stereo not shown) [14-04], the LogP is reported as 5.18^[a]. For `Cc1ccc(CC2CON=C(c3cc(Cl)ncc3Oc3ccc4c(c3)CC4)N2)c(C)c1` (racemic) [Compound I-036], the LogP was 4.88^[a]. With `NOCC(Cc1ccc(Cl)cc1Cl)NC(=O)c1cc(Cl)ncc1Oc1cccc(C2CC2)c1` (stereo not shown) [4-03] the LogP was 4.06^[a]. In the case of `CC(=O)c1ccc(CC2CON=C(c3cc(Cl)ncc3Oc3cccc(C(F)F)c3)N2)c(Cl)c1` (racemic) [Compound I-038], the LogP is reported as 3.47^[a]. For `NOCC(Cc1ccc(Br)cc1Cl)NC(=O)c1cc(Cl)ncc1Oc1cccc(C2CC2)c1` (stereo not shown) [4-02], the LogP was 4.15^[a]. In the case of `Cc1ccc(C(CCl)NC(=O)c2cc(Cl)ncc2Oc2cccc(C(F)(F)F)c2)cc1` (stereo not shown) [14-12], the LogP is reported as 4.49^[a]. With `Cc1ccc(CC(CON2C(=O)c3ccccc3C2=O)NC(=O)c2cc(Cl)ncc2Oc2cccc(C(F)F)c2)c(C)c1` (stereo not shown) [3-11] the LogP was 4.69^[a]. With `Cc1ccc(CC2CON=C(c3cc(Cl)ncc3Oc3cccc(-c4ccccn4)c3)N2)c(C)c1` (racemic) [Compound I-089] the LogP was 3.87^[a]. With `Cc1ccc(CC2CON=C(c3cc(Cl)ncc3Oc3cccc(C4CC4)c3)N2)c(C)c1` (single isomer, unassigned) [Compound I-020] the LogP was 4.89^[a]. With `Cc1ccc(CC2CON=C(c3cc(Cl)ncc3Oc3cnc4c(c3)CCC4)N2)c(C)c1` (stereo not shown) [Compound I-140] the LogP was 3.17^[a]. For `COc1cccc(Oc2cnc(Cl)cc2C(=O)NC(CON2C(=O)c3ccccc3C2=O)Cc2ccc(Br)cc2Cl)c1` (stereo not shown) [3-08], the LogP was 5.05^[a]. For `Cc1ccc(CC2CON=C(c3cc(Cl)ncc3Oc3ccc(C)c(Cl)c3)N2)c(C)c1` (racemic) [Compound I-076], the LogP was 4.97^[a]. In the case of `Cc1ccc(CC2CON=C(c3cc(Cl)ncc3Oc3cccc(C(F)(F)F)c3)N2)cc1` (racemic) [Compound I-110], the LogP is reported as 4.31^[a]. With `FC(F)(F)Sc1cccc(Oc2cnc(Cl)cc2C2=NOCC(Cc3ccc(Cl)cc3Cl)N2)c1` (racemic) [Compound I-090] the LogP was 5.16^[a]. With `Cc1ccc(CC2CON=C(c3c(Oc4cccc(C(F)(F)F)c4)cnc(Cl)c3-c3ccccc3)N2)c(C)c1` (stereo not shown) [Compound I-133] the LogP was 5.04^[a]. For `Cc1ccc(CC2CON=C(c3cc(Cl)ncc3Oc3cccc(OC(F)F)c3)N2)c(C)c1` (racemic) [Compound I-065], the LogP was 4.38^[a]. In the case of `O=C(NC(CCl)Cc1csc(C(F)(F)F)c1)c1cc(Cl)ncc1Oc1cccc(C(F)(F)F)c1` (stereo not shown) [14-10], the LogP is reported as 4.96^[a]. For `Cc1ccc(CC(CON)NC(=O)c2cc(Cl)ncc2Oc2cccc(C(F)F)c2)c(C)c1` (stereo not shown) [4-11], the LogP was 3.09^[a]. In the case of `CCc1cccc(Oc2cnc(Cl)cc2C2=NOCC(Cc3ccc(Cl)cc3Cl)N2)c1F` (stereo not shown) [Compound I-141], the LogP is reported as 5.16^[a]. With `Cc1ccc(CC(CCl)NC(=O)c2cc(Cl)nc(F)c2Oc2cccc(C(F)(F)F)c2)c(C)c1` (stereo not shown) [14-06] the LogP was 5.45^[a]. With `Cc1ccc(CC(N)CC(N)=O)c(C)c1` (stereo not shown) [13-09] the LogP was 0.69^[a]. For `O=C(NC(CON1C(=O)c2ccccc2C1=O)Cc1ccc(Cl)cc1Cl)c1cc(Cl)ncc1Oc1cccc(C2CC2)c1` (stereo not shown) [3-03], the LogP was 5.62^[a]. In the case of `Cc1ccc(Cl)c(CC2CON=C(c3cc(Cl)ncc3Oc3cccc(Cl)c3F)N2)c1` (racemic) [Compound I-118], the LogP is reported as 4.52^[a]. In the case of `Cc1ccc(C(CCl)NC(=NO)c2cc(Cl)ncc2Oc2cccc(C(F)(F)F)c2)cc1` (stereo not shown) [16-12], the LogP is reported as 4.19^[a]. With `O=C(NC(CON1C(=O)c2ccccc2C1=O)Cc1ccc(Br)cc1Cl)c1cc(Cl)ncc1Oc1cccc(C2CC2)c1` (stereo not shown) [3-02] the LogP was 5.75^[a]. With `Cc1ccc(CC2CON=C(c3cc(Cl)ncc3Br)N2)c(C)c1` (stereo not shown) [7-01] the LogP was 3.31^[a]. In the case of `Cc1ccc(CC(CON)NC(=O)c2cc(Cl)ncc2Oc2cccc(Cl)c2)c(C)c1` (stereo not shown) [4-12], the LogP is reported as 3.35^[a]. With `CC1(C)ON=C(c2cc(Cl)ncc2Oc2cccc(C(F)(F)F)c2)NC1c1ccc(F)cc1F` (racemic) [Compound I-043] the LogP was 4.30^[a]. For `Cc1ccc(CC(CCl)NC(=NO)c2cc(Cl)ncc2Oc2cccc(C(F)(F)F)c2)c(C)c1` (stereo not shown) [16-03], the LogP was 4.80^[a]. With `Cc1ccc(CC(CCl)NC(=NO)c2cc(Cl)ncc2Oc2cccc(C(F)(F)F)c2)cc1` (stereo not shown) [16-04] the LogP was 4.59^[a]. In the case of `Cc1ccc(CC2CON=C(c3cc(Cl)ncc3Oc3cccc(Cl)c3)N2)c(C)c1` (single isomer, unassigned) [Compound I-012], the LogP is reported as 4.53^[a]. In the case of `Cc1ccc(CC(CCl)NC(=O)c2cc(Cl)ncc2Oc2cccc(C(F)(F)F)c2)c(C)c1` (stereo not shown) [14-02], the LogP is reported as 5.32^[a]. For `Cc1ccc(CC2CON=C(c3cc(C#N)ncc3Oc3cccc(C(F)(F)F)c3)N2)cc1` (racemic) [Compound I-057], the LogP was 4.12^[a]. In the case of `NOCC(Cc1ccc(Cl)cc1Cl)NC(=O)c1cc(Cl)ncc1Oc1cccc(C2CC2)c1F` (stereo not shown) [4-04], the LogP is reported as 3.96^[a]. In the case of `COc1cc(C(=NO)NC(CCl)Cc2ccc(C)cc2Cl)c(Br)cn1` (stereo not shown) [18-03], the LogP is reported as 4.12^[a]. For `Cc1ccc(CC2CON=C(c3cc(Cl)ncc3Oc3cccc(C(F)F)c3)N2)c(C)c1` (racemic) [Compound I-003], the LogP was 4.08^[a]. In the case of `FC(F)(F)c1cccc(Oc2cnc(Cl)cc2C2=NOCC(C3(c4ccccc4)CC3)N2)c1` (racemic) [Compound I-046], the LogP is reported as 4.21^[a]. For `COC(=O)c1cc(C(C)=O)ncc1Oc1cccc(C(F)(F)F)c1` [Compound 1-04], the LogP was 3.59^[a]. With `Cc1ccc(CC2CON=C(c3cc(C)ncc3Oc3cccc(C4CC4)c3F)N2)c(C)c1` (racemic) [Compound I-017] the LogP was 4.03^[a]. In the case of `Cc1ccc(C2CCON=C(c3cc(Cl)ncc3Oc3cccc(C(F)(F)F)c3)N2)cc1` (stereo not shown) [Compound I-146], the LogP is reported as 2.06^[a]. For `CSc1cccc(Oc2cnc(Cl)cc2C2=NOCC(Cc3ccc(C)cc3C)N2)c1` (racemic) [Compound I-064], the LogP was 4.66^[a]. In the case of `O=C(NC(CCl)Cc1csc(Cl)c1)c1cc(Cl)ncc1Oc1cccc(C(F)(F)F)c1` (stereo not shown) [14-11], the LogP is reported as 4.96^[a]. With `Cc1ccc(CC(CCl)NC(=NO)c2cc(Cl)nc(Cl)c2Oc2cccc(C(F)(F)F)c2)c(C)c1` (stereo not shown) [16-07] the LogP was 5.35^[a]. For `O=C(O)c1cc(Cl)ncc1Oc1cccc(Cl)c1` [Compound 1-11], the LogP was 2.76^[a].

Same assay, conditions: Table 3, compounds of formula (1); method [a]: LC-UV, acidic range, 0.1% formic acid in water and acetonitrile
Work on `O=C(O)c1cc(Cl)ncc1Oc1cccc(C(F)(F)F)c1` [Compound 1-13, 2-chloro-5-[3-(trifluoromethyl)phenoxy]isonicotinic acid] yielded a chromatographic logP of 2.84.

Same assay, conditions: Table 11, compounds of formula (6); method [a]: LC-UV, acidic range, 0.1% formic acid in water and acetonitrile
`Cc1ccc(CC(CON)NC(=O)c2cc(C(F)(F)F)ncc2Br)c(C)c1` (racemic) [Compound 6-03, N-[(2RS)-1-(aminooxy)-3-(2,4-dimethylphenyl)propan-2-yl]-5-bromo-2-(trifluoromethyl)isonicotinamide] gave a chromatographic logP of 2.51. For `Cc1ccc(CC(CON2C(=O)c3ccccc3C2=O)NC(=O)c2cc(C(F)(F)F)ncc2Br)c(C)c1` (racemic) [Compound 6-04, 5-bromo-N-{(2RS)-1-(2,4-dimethylphenyl)-3-[(1,3-dioxo-1,3-dihydro-2H-isoindol-2-yl)oxy]propan-2-yl}-2-(trifluoromethyl)isonicotinamide], the chromatographic logP was 4.4.
